Data: ChEMBL document CHEMBL1150439, “Synthesis and evaluation of dual domain macrocyclic FKBP12 ligands” (Bioorg Med Chem Lett, 1994)

The compounds below were run against Peptidyl-prolyl cis-trans isomerase FKBP1A (Homo sapiens, UniProt P62942) (assay: Binding affinity towards FK506 binding protein 12 as measured by displacement of a radiolabeled FK506 analogue).
Peptidyl-prolyl cis-trans isomerase FKBP1A, sequence (P62942 whole entry): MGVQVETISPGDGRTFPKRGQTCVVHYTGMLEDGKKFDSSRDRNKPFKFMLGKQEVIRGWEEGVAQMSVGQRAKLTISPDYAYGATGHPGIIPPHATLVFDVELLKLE

Row | Kd [µM] | SMILES
1 | 0.4 | C=CCC1/C=C(\C)CCOC(=O)OC(=O)C2CC[C@@H](O2)C(=O)C(=O)C(=O)OC(=O)C(=O)N2CCCC[C@H]2C(=O)O[C@H](CCc2cccnc2)[C@H](C)CCC1=O (some centres not stated)
2 | 8 | C=CCC1/C=C(\C)CCOC(=O)OC(=O)C2CC[C@@](C)(O2)C(=O)C(=O)C(=O)OC(=O)C(=O)N2CCCC[C@H]2C(=O)O[C@H](CCc2cccnc2)[C@H](C)CCC1=O (some centres not stated)
3 | 2 | C=CCC1/C=C(\C)CCOC(=O)OC(=O)CCCC(=O)C(=O)OC(=O)C(=O)N2CCCC[C@H]2C(=O)O[C@H](CCc2cccnc2)[C@H](C)CCC1=O (some centres not stated)
4 | 5.5 | C=CCC1/C=C(\C)CCOC(=O)OC(=O)CCC(=O)C(=O)OC(=O)C(=O)N2CCCC[C@H]2C(=O)O[C@H](CCc2cccnc2)[C@H](C)CCC1=O (some centres not stated)
5 | 0.2 | C=CCC1/C=C(\C)CCCOC(=O)OC(=O)C2CC[C@@H](O2)C(=O)C(=O)C(=O)OC(=O)C(=O)N2CCCC[C@H]2C(=O)O[C@H](CCc2cccnc2)[C@H](C)CCC1=O (some centres not stated)
6 | 4.5 | C=CCC1/C=C(\C)CCOC(=O)OC(=O)CCCCC(=O)C(=O)OC(=O)C(=O)N2CCCC[C@H]2C(=O)O[C@H](CCc2cccnc2)[C@H](C)CCC1=O (some centres not stated)
7 | 4 | C=CCC1/C=C(\C)CCCOC(=O)OC(=O)C2CC[C@@](C)(O2)C(=O)C(=O)C(=O)OC(=O)C(=O)N2CCCC[C@H]2C(=O)O[C@H](CCc2cccnc2)[C@H](C)CCC1=O (some centres not stated)
